Measured values from US7772212B2, “Isomaltooligosaccharides to inhibit avian pathogenic intestinal bacteria” (priority 2003, dated 2010).

How the values were obtained:
[1] = system: α-Glucosidase (maltase; EC 3.2.1.20); assay: Kinetic assay for α-glucosidase; type: biochemical; conditions: 0%, 0.25%, 0.5% test sugar; maltose 0, 50, 100, 250 mM; 37° C., pH 7
Protocol: α-Glucosidase (maltase; EC 3.2.1.20), β-NAD, glucose dehydrogenase (EC 1.1.147) and other reagent chemicals were obtained from the Sigma Chemical Co. (St. Louis, Mo.). The kinetic assays were based on the following reaction;
The kinetic assays were all performed in 96-well plates and read at wavelength 320 nm in a SPECTRAmax Plus microtiter plate reader (Molecular Devices Corp., Sunnyvale, Calif.) at 37° C. The software package Softmax™ was used for data analysis. α-Glucosidase (maltase; EC 3.2.1.20), β-NAD, and glucose dehydrogenase (EC 1.1.147) solutions were prepared with 0.1M K2HPO4 (pH 7) buffer. Each well contained 25 μl of 0.13 IU/ml glucose dehydrogenase, 25 μl of 1.65 IU/ml of α-glucosidase, and 20 μl of 12 mM of G-NAD in a total volume of 200 μl with different combinations of sugars and 0.1M K2HPO4 (pH 7) buffer. Absorbance change with time was measured at 320 nm.
In order to determine the role of branching in the inhibition, the Ki values for panose and isomaltotriose were also determined.

[2] = system: S. typhimurium; assay: Growth test with panose and maltooligosaccharides; type: cell-based, Salmonella typhimurium; conditions: combinations of panose and maltooligosaccharides (DP 4 to DP 10), anaerobic, 37° C.
Protocol: (§1) To further determine whether Leuconostoc IMO acts as a starch-metabolism inhibitor, B. longum and S. typhimurium were grown in different combinations of panose and maltooligosaccharides (from DP 4 to DP 10). As the concentration of panose in the growth medium increased, the growth of S. typhimurium slowed but B. longum growth increased. (FIGS. 11A and 11B, respectively).

[3] = system: B. longum; assay: Growth test with panose and maltooligosaccharides; type: cell-based, Bifidobacterium longum; conditions: combinations of panose and maltooligosaccharides (DP 4 to DP 10), anaerobic, 37° C.
Protocol: as §1

SMILES | Inhibition of α-glucosidase (maltase) activity [1] | Growth of S. typhimurium as panose concentration in medium increased [2] | Growth of B. longum as panose concentration in medium increased [3]
OC[C@H]1O[C@H](OC[C@H]2O[C@H](OC[C@H]3OC(O)[C@H](O)[C@@H](O)[C@@H]3O)[C@H](O)[C@@H](O)[C@@H]2O)[C@H](O)[C@@H](O)[C@@H]1O (stereo partly shown) [Isomaltotriose, isomaltotriose] | not inhibitory |  | 
OC[C@H]1O[C@H](OC[C@H]2O[C@H](O[C@H]3[C@H](O)[C@@H](O)C(O)O[C@@H]3CO)[C@H](O)[C@@H](O)[C@@H]2O)[C@H](O)[C@@H](O)[C@@H]1O (stereo partly shown) [panose] | showed an inhibition | slowed | increased
